Test results: patent US12552790B2, “Positive modulators of the muscarinic acetylcholine receptor M4” (Vanderbilt University, priority 2023, dated 2026)

Experiments:
Human M4 = biological target: T1, Human M4 (Homo sapiens, UniProt P08173); test: M4 cell-based functional assay, calcium mobilization, potentiation of ACh EC20; conditions: for Emax at 30 µM: % ACh maximum at 30 μM; for EC50: CHO-K1 hM4-Gqi5 cells, calcium flux, ACh EC20
T1 construct: expressed in transfected cells
T1 sequence (P08173 1-479): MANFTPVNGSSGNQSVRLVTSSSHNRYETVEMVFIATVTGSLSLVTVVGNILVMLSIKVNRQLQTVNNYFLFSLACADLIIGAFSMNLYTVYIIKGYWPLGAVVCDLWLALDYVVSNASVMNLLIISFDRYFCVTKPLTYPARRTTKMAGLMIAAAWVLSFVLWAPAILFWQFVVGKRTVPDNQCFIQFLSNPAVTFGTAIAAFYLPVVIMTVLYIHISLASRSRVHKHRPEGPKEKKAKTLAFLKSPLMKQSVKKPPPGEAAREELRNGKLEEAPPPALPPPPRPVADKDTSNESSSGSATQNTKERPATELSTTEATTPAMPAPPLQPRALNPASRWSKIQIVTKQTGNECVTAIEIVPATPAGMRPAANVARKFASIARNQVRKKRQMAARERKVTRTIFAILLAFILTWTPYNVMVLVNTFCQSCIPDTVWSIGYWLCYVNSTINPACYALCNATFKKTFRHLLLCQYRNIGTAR
Protocol: Human and rat M4 cDNAs, along with the chimeric G protein Gqi5, were transfected into Chinese hamster ovary (CHO-K1) cells purchased from the American Type Culture Collection using Lipofectamine2000. The transfected cells were subjected to selection antbiotic treatment to generate stable cell lines; G418 sulfate (1 mg/ml) for selecting M4 expressing cells and Hygromycin B (500 μg/mL) for selecting Gqi5 expressing cells. The resulting polyclones were further screened to obtain monoclones of hM4-Gqi5 and rM4-Gqi5 for compound screening assay. Stable monoclone cells were maintained in Ham's F-12 medium containing 10% heat-inactivated fetal bovine serum (FBS), 1× Antibiotic/Antimycotic, 20 mM HEPES, 500 μg/mL G418 sulfate, and 200 μg/mL Hygromycin B in 37° C. humidified incubators in the presence of 5% CO2.
(§1) The high throughput assay was employed to measure receptor-induced mobilization of intracellular calcium to determine compound activity. Test compound was added to cells expressing the muscarinic receptors that were loaded with calcium sensitive fluorescent dye. After a ˜2.5 minute incubation period, a submaximal (EC20) concentration of acetylcholine was added, and the response measured. This kinetic assay allows for simultaneous screening and potency determination of multiple pharmacological modes of action including agonist and potentiator activity. CHO-K1 cells stably expressing muscarinic receptors were plated in growth medium lacking G418 and hygromycin at 15,000 cells/20 μL/well in Greiner 384-well black-walled, tissue culture (TC)-treated, clear-bottom plates (Greiner Bio-One). Cells were incubated overnight at 37° C. and 5% CO2. The next day, calcium assay buffer (Hank's balanced salt solution (HBSS), 20 mM HEPES, 2.5 mM Probenecid, 4.16 mM sodium bicarbonate (Sigma-Aldrich, St. Louis, MO)) was prepared to dilute compounds, agonists, and Fluo-4-acetomethoxyester (Fluo-4-AM), fluorescent calcium indicator dye. Compounds were serially diluted 1:3 into 10 point concentration response curves in DMSO using the Bravo Liquid Handler (Agilent, Santa Clara, CA), transferred to a 384 well daughter plates using an Echo acoustic liquid handler (Beckman Coulter, Indianapolis, Indiana), and diluted in assay Buffer to a 2× final concentration. The agonist plates were prepared using acetylcholine (ACh, Sigma-Aldrich, St. Louis, MO) concentrations for the EC20 and ECMAX responses by diluting in assay buffer to a 5× final concentration. The 2× dye solution (2.3 μM) was prepared by mixing a 2.3 mM Fluo-4-AM stock in DMSO with 10% (w/v) pluronic acid F-127 in a 1:1 ratio in assay buffer. Using a microplate washer (BioTek, Winooski, VT), cells were washed with assay buffer for 3 times to remove medium. After the final wash, 20 μL of assay buffer remained in the cell plates. Immediately, 20 μL of the 2× dye solution (final 1.15 μM) was added to each well of the cell plate using a Multidrop Combi dispenser (Thermo Fisher, Waltham, MA). After cells were incubated with the dye solutions for 45 min at 37° C. in the presence of 5% CO2, the dye solutions were removed and replaced with assay buffer using a microplate washer, leaving 20 μL of assay buffer in the cell plate.
The prepared compound, agonist, and cell plates were placed inside the Functional Drug Screening System uCell (FDSS uCell, Hamamatsu, Japan) to measure the calcium flux. The triple add protocol was used to measure Ca kinetics; Compound, ACh for EC20, and ACh for EC80 adds in an order. Briefly, after establishment of a fluorescence baseline for 2 seconds (excitation, 480 nm; emission, 530 nm), first add occurred by adding 20 μL of test compound to the cells, and the response was measured for 140 seconds. This is followed by second add; 10 μL (5×) of an EC20 concentration of ACh agonist was added to the cells, and the response of the cells was measured for 125 seconds. […]

Human M2 = biological target: T2, Human M2 (Homo sapiens, UniProt P08172); test: M2 cell-based functional assay, calcium mobilization (selectivity); conditions: for Emax at 30 µM: % ACh maximum at 30 μM; for EC50 / Human M2 EC50: M2 cell-based functional assay, calcium flux
T2 construct: expressed in transfected cells; host or cells: CHO-K1
T2 sequence (P08172 1-466): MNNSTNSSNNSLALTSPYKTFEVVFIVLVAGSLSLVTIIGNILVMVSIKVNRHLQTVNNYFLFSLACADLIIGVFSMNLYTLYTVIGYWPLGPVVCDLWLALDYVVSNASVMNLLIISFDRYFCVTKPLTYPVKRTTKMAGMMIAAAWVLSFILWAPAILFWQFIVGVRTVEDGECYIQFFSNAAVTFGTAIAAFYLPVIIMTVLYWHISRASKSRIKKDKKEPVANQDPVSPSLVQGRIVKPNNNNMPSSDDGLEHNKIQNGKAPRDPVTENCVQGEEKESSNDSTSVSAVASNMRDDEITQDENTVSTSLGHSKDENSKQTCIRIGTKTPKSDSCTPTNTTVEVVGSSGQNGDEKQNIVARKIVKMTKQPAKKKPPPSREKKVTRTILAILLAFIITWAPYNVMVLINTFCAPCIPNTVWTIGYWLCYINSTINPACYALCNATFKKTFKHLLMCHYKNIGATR
Protocol: as §1
The prepared compound, agonist, and cell plates were placed inside the Functional Drug Screening System uCell (FDSS uCell, Hamamatsu, Japan) to measure the calcium flux. The triple add protocol was used to measure Ca kinetics; Compound, ACh for EC20, and ACh for EC80 adds in an order. Briefly, after establishment of a fluorescence baseline for 2 seconds (excitation, 480 nm; emission, 530 nm), first add occurred by adding 20 μL of test compound to the cells, and the response was measured for 140 seconds. This is followed by second add; 10 μL (5×) of an EC20 concentration of ACh agonist was added to the cells, and the response of the cells was measured for 125 seconds. Immediately, the third add occurred by adding […] (5×) of an EC80 concentration of ACh and the response of the cells was measured for 90 seconds. Acetylcholine-mediated maximum response (ECmax) was measured by adding 1 mM ACh as third add in the control wells. DMSO vehicle was added to the control wells in the first add for assessing ACh EC20, EC80, and ECmax responses. Calcium fluorescence was recorded as fold over basal fluorescence and raw data were normalized to the maximal response to ACh agonist. Agonist activity was analyzed as a concentration-dependent increase in calcium mobilization upon compound addition. Positive allosteric modulator activity was analyzed as a concentration-dependent increase in the EC20 acetylcholine response. Antagonist activity was analyzed as a concentration-dependent decrease in the EC80 acetylcholine response. […]

Emax at 30 µM (Human M4) [%]	EC50 (Human M4) [µM]	Emax at 30 µM (Human M2) [%]	EC50 (Human M2) [µM]	Human M2 EC50 (Human M2)	Structure (SMILES)
83	0.053	45	5.92	–	[2H]C1([2H])Oc2ccc(OC3CCN(c4nc5nn(C)c(=O)n5c5c4CCCC5)CC3)cc2OC1([2H])[2H] [Compound A15, 5-(4-((2,3-dihydrobenzo[b][1,4]dioxin-6-yl-2,2,3,3-d4)oxy)piperidin-1-yl)-2-methyl-6,7,8,9-tetrahydro-[1,2,4]triazolo[4,3-a]quinazolin-1(2H)-one]
79	0.005	45	0.839	–	[2H]C1([2H])Oc2ccc(OC3CCN(c4nc5n[nH]c(=O)n5c(C)c4C)CC3)cc2OC1([2H])[2H] [Compound A9, 7-(4-((2,3-dihydrobenzo[b][1,4]dioxin-6-yl-2,2,3,3-d4)oxy)piperidin-1-yl)-5,6-dimethyl-[1,2,4]triazolo[4,3-a]pyrimidin-3(2H)-one]
95	0.048	–	–	Inactive	[2H]C1([2H])Oc2ccc(OC3CCN(c4nc5nn(CC6CN(C)CCO6)c(=O)n5cc4C)CC3)cc2OC1([2H])[2H] (stereo not drawn) [Compound A8, 7-(4-((2,3-dihydrobenzo[b][1,4]dioxin-6-yl-2,2,3,3-d4)oxy)piperidin-1-yl)-6-methyl-2-((4-methylmorpholin-2-yl)methyl)-[1,2,4]triazolo[4,3-a]pyrimidin-3(2H)-one]
89	0.053	47	> 10	–	[2H]C1([2H])Oc2ccc(OC3CCN(c4nc5nn(C(C)COC)c(=O)n5cc4C)CC3)cc2OC1([2H])[2H] (stereo not drawn) [Compound A7, 7-(4-((2,3-dihydrobenzo[b][1,4]dioxin-6-yl-2,2,3,3-d4)oxy)piperidin-1-yl)-2-(1-methoxypropan-2-yl)-6-methyl-[1,2,4]triazolo[4,3-a]pyrimidin-3(2H)-one]
103	0.032	–	–	Inactive	[2H]C1([2H])Oc2ccc(OC3CCN(c4nc5nn(C)c(=O)n5c(C5CC5)c4C)CC3)cc2OC1([2H])[2H] [Compound A12, 5-cyclopropyl-7-(4-((2,3-dihydrobenzo[b][1,4]dioxin-6-yl-2,2,3,3-d4)oxy)piperidin-1-yl)-2,6-dimethyl-[1,2,4]triazolo[4,3-a]pyrimidin-3(2H)-one]
103	0.007	54	2.38	–	[2H]C1([2H])Oc2ccc(OC3CCN(c4nc5c(c(C)c4C)C(=O)N(C)C5)CC3)cc2OC1([2H])[2H] [Compound 12, 2-(4-((2,3-dihydrobenzo[b][1,4]dioxin-6-yl-2,2,3,3-d4)oxy)piperidin-1-yl)-3,4,6-trimethyl-6,7-dihydro-5H-pyrrolo[3,4-b]pyridin-5-one]
100	0.005	78	0.367	–	[2H]C1([2H])Oc2ccc(OC3CCN(c4nc5n[nH]c(=O)n5cc4C)CC3)cc2OC1([2H])[2H] [Compound A1, 7-(4-((2,3-dihydrobenzo[b][1,4]dioxin-6-yl-2,2,3,3-d4)oxy)piperidin-1-yl)-6-methyl-[1,2,4]triazolo[4,3-a]pyrimidin-3(2H)-one]
108	0.003	69	0.346	–	[2H]C1(Oc2ccc3c(c2)OC([2H])([2H])C([2H])([2H])O3)CCN(c2nc3c(cc2C)C(=O)NC3)CC1 [Compound 1, 2-(4-((2,3-dihydrobenzo[b][1,4]dioxin-6-yl-2,2,3,3-d4)oxy)piperidin-1-yl-4-d)-3-methyl-6,7-dihydro-5H-pyrrolo[3,4-b]pyridin-5-one]
91	0.027	57	2.24	–	[2H]C1([2H])Oc2ccc(OC3CCN(c4nc5c(cc4C)C(=O)OC5C)CC3)cc2OC1([2H])[2H] (stereo not drawn) [Compound 9, 2-(4-((2,3-dihydrobenzo[b][1,4]dioxin-6-yl-2,2,3,3-d4)oxy)piperidin-1-yl)-3,7-dimethylfuro[3,4-b]pyridin-5(7H)-one]
76	0.065	53	3.75	–	[2H]C1([2H])Oc2ccc(OC3CCN(c4nc5c(cc4C)C(=O)N(C4CCCC4)C5)CC3)cc2OC1([2H])[2H] [Compound 7, 6-cyclopentyl-2-(4-((2,3-dihydrobenzo[b][1,4]dioxin-6-yl-2,2,3,3-d4)oxy)piperidin-1-yl)-3-methyl-6,7-dihydro-5H-pyrrolo[3,4-b]pyridin-5-one]
85	0.011	57	5.87	–	[2H]C1([2H])Oc2ccc(O[C@H]3CCN(c4nc5c(cc4C)C(=O)NC5)[C@H](C)C3)cc2OC1([2H])[2H] [Compound 4, 2-((2R,4S)-4-((2,3-dihydrobenzo[b][1,4]dioxin-6-yl-2,2,3,3-d4)oxy)-2-methylpiperidin-1-yl)-3-methyl-6,7-dihydro-5H-pyrrolo[3,4-b]pyridin-5-one]
